The record followed here is patent publication US9657014B2, “Substituted 1,6-naphthyridines” (Hoffmann-La Roche Inc., priority 2012, dated 2017).

One experiment deals with human embryonic stem cell derived neural stem cells (NSCs). As to the kind of experiment: Neural stem cell proliferation assay (neurogenesis assay). The conditions noted are these: Homo sapiens, Neural stem cell, 96 h; Table 1, novel compounds; concentration at which 150% activity of control (100%) is reached; ATP levels (CellTiterGlo) after 4 days incubation. Format: cell-based. The method, boiled down: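 NSCs derived from human ES cells by dual SMAD inhibition, seeded on polyornithin/laminin, dosed 4 h later (11 points, 8 μM to 8 nM). After 4 days at 37° C, ATP luminescence read; response = compound/medium control ×100, EC150 = concentration giving 150% of control.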
`CS(=O)(=O)CCNC(=O)c1ccc2cncc(-c3ccc(F)cc3)c2n1` [Example 135, 8-(4-Fluorophenyl)-N-(2-(methylsulfonyl)ethyl)-1,6-naphthyridine-2-carboxamide]: the EC (150% of control) came out at 0.08 µM.

For the compound `CC(C)Cc1cncc2ccc(C(N)=O)nc12` [Example 136, 8-Isobutyl-1,6-naphthyridine-2-carboxamide], the EC (150% of control) was 0.04 µM. The same measure, in the same setting: then `CS(=O)(=O)CCNC(=O)c1ccc2cncc(-c3ccc(F)c(F)c3)c2n1` [Example 137, 8-(3,4-Difluorophenyl)-N-(2-(methylsulfonyl)ethyl)-1,6-naphthyridine-2-carboxamide], with 0.35 µM.

As to `CS(=O)(=O)CCNC(=O)c1ccc2cncc(-c3cc(F)ccc3F)c2n1` [Example 138, 8-(2,5-Difluorophenyl)-N-(2-(methylsulfonyl)ethyl)-1,6-naphthyridine-2-carboxamide], the EC (150% of control) came to 0.26 µM. For the compound `CS(=O)(=O)CCNC(=O)c1ccc2cncc(-c3ccc(Cl)cc3F)c2n1` [Example 139, 8-(4-Chloro-2-fluorophenyl)-N-(2-(methylsulfonyl)ethyl)-1,6-naphthyridine-2-carboxamide], the EC (150% of control) turned out to be 0.06 µM.

In turn, `CN(C)c1cc(-c2cncc3ccc(C(N)=O)nc23)ccn1` [Example 140, 8-(2-(Dimethylamino)pyridin-4-yl)-1,6-naphthyridine-2-carboxamide] had an EC (150% of control) of 0.147 µM. Same read-out and setting: then `NC(=O)c1ccc2cncc(N3CCOCC3)c2n1` [Example 142, 8-Morpholino-1,6-naphthyridine-2-carboxamide], with 0.94 µM; and `COc1cccc(-c2cncc3ccc(C(N)=O)nc23)c1` [Example 143, 8-(3-Methoxyphenyl)-1,6-naphthyridine-2-carboxamide], with 0.24 µM; and `O=C(NCCO)c1ccc2cncc(-c3cccc(O)c3)c2n1` [Example 144, N-(2-Hydroxyethyl)-8-(3-hydroxyphenyl)-1,6-naphthyridine-2-carboxamide], with 0.16 µM. Same read-out and setting: to `CCCCCCNC(=O)c1ccc2cncc(-c3ccc(Cl)cc3)c2n1` [Example 145, 8-(4-Chlorophenyl)-N-hexyl-1,6-naphthyridine-2-carboxamide] belongs 0.21 µM.

The compound `NC(=O)c1ccc2cncc(C3=CCOCC3)c2n1` [Example 146, 8-(3,6-Dihydro-2H-pyran-4-yl)-1,6-naphthyridine-2-carboxamide] showed an EC (150% of control) of 0.21 µM. On the same count and under the same terms, then `CCCCCCNC(=O)c1ccc(-c2cncc3ccc(C(N)=O)nc23)cc1` [Example 147, 8-(4-(Hexylcarbamoyl)phenyl)-1,6-naphthyridine-2-carboxamide], with 0.09 µM; and `CCCCCCNC(=O)Cc1cccc(-c2cncc3ccc(C(N)=O)nc23)c1` [Example 148, 8-(3-(2-(Hexylamino)-2-oxoethyl)phenyl)-1,6-naphthyridine-2-carboxamide], with 0.18 µM; and `CCCCCCC(=O)NCc1ccc(-c2cncc3ccc(C(N)=O)nc23)cc1` [Example 149, 8-(4-(Heptanamidomethyl)phenyl)-1,6-naphthyridine-2-carboxamide], with 0.07 µM. On to `CCCCCCNC(=O)Cc1ccc(-c2cncc3ccc(C(N)=O)nc23)cc1` [Example 150, 8-(4-(2-(Hexylamino)-2-oxoethyl)phenyl)-1,6-naphthyridine-2-carboxamide], for which the EC (150% of control) is 0.04 µM.

On to `CCCCCCC(=O)NCc1cccc(-c2cncc3ccc(C(N)=O)nc23)c1` [Example 151, 8-(3-(Heptanamidomethyl)phenyl)-1,6-naphthyridine-2-carboxamide], for which the EC (150% of control) amounted to 0.03 µM.

On to `Cc1cc2cncc(-c3ccc(Cl)cc3)c2nc1C(N)=O` [Example 152, 8-(4-Chlorophenyl)-3-methyl-1,6-naphthyridine-2-carboxamide], for which the EC (150% of control) was found to be 0.34 µM. As for `Cc1cc2cncc(-c3ccc(F)cc3)c2nc1C(N)=O` [Example 153, 8-(4-Fluorophenyl)-3-methyl-1,6-naphthyridine-2-carboxamide], the EC (150% of control) came to 0.79 µM. Still for that read-out and setting: then `Cc1cc2cncc(-c3ccc(OC(F)(F)F)cc3)c2nc1C(N)=O` [Example 154, 3-Methyl-8-(4-(trifluoromethoxy)phenyl)-1,6-naphthyridine-2-carboxamide], with 2.19 µM; and `Cc1cc2cncc(-c3ccc(C#N)cc3)c2nc1C(N)=O` [Example 155, 8-(4-Cyanophenyl)-3-methyl-1,6-naphthyridine-2-carboxamide], with 0.7 µM. As to `NCc1ccc(-c2cncc3ccc(C(N)=O)nc23)cc1` [Example 156, 8-(4-(Aminomethyl)phenyl)-1,6-naphthyridine-2-carboxamide], the EC (150% of control) was 0.31 µM.

Take `Cc1cc2cncc(-c3ccc(C(F)(F)F)cc3)c2nc1C(N)=O` [Example 157, 3-Methyl-8-[4-(trifluoromethyl)phenyl]-1,6-naphthyridine-2-carboxamide]: the EC (150% of control) is 0.88 µM. The same measure, in the same setting: to `O=C(NCCO)c1ccc2cncc(-c3ccc(Cl)cc3)c2n1` [Example 158, 8-(4-Chlorophenyl)-N-(2-hydroxyethyl)-1,6-naphthyridine-2-carboxamide] belongs 0.09 µM; to `NC(=O)c1ccc2cncc(-c3ccc(Cl)nc3)c2n1` [Example 159, 8-(6-Chloropyridin-3-yl)-1,6-naphthyridine-2-carboxamide], 0.18 µM. The compound `NC(=O)c1ccc2cncc(-c3ccc(Cl)cc3Cl)c2n1` [Example 160, 8-(2,4-Dichlorophenyl)-1,6-naphthyridine-2-carboxamide] registered an EC (150% of control) of 0.1 µM. On to `CC(NC(=O)c1ccc2cncc(-c3ccc(C(F)(F)F)cc3)c2n1)C(C)(C)O` (stereo not shown) [Example 161, N-(3-Hydroxy-3-methylbutan-2-yl)-8-(4-(trifluoromethyl)phenyl)-1,6-naphthyridine-2-carboxamide], for which the EC (150% of control) was 0.06 µM. On the same count and under the same terms, to `CC(NC(=O)c1ccc2cncc(-c3ccc(Cl)cc3)c2n1)C(C)(C)O` (stereo not shown) [Example 162, 8-(4-Chlorophenyl)-N-(3-hydroxy-3-methylbutan-2-yl)-1,6-naphthyridine-2-carboxamide] belongs 0.06 µM; to `CC(NC(=O)c1ccc2cncc(-c3ccc(OCC(F)(F)F)cc3)c2n1)C(C)(C)O` (stereo not shown) [Example 163, N-(3-Hydroxy-3-methylbutan-2-yl)-8-(4-(2,2,2-trifluoroethoxyl)phenyl)-1,6-naphthyridine-2-carboxamide], 0.07 µM; to `CC(NC(=O)c1ccc2cncc(-c3cccc(OCC(F)(F)F)c3)c2n1)C(C)(C)O` (stereo not shown) [Example 164, N-(3-Hydroxy-3-methylbutan-2-yl)-8-(3-(2,2,2-trifluoroethoxyl)phenyl)-1,6-naphthyridine-2-carboxamide], 0.76 µM. On the same count and under the same terms, then `NC(=O)c1ccc2cncc(-c3ccc(OCC(F)(F)F)cc3)c2n1` [Example 165, 8-(4-(2,2,2-Trifluoroethoxyl)phenyl)-1,6-naphthyridine-2-carboxamide], with 0.01 µM.

Still in this experiment, the particulars now being: Table 1, novel compounds; concentration at which 150% activity of control (100%) is reached; ATP levels (CellTiterGlo) after 4 days incubation.
Regarding `CC1(CNC(=O)c2ccc3cncc(-c4ccc(Cl)cc4)c3n2)CCC(=O)N1` (stereo not shown) [Example 141, 8-(4-Chlorophenyl)-N-((2-methyl-5-oxopyrrolidin-2-yl)methyl)-1,6-naphthyridine-2-carboxamide], the “EC150” value was found to be 0.01 µM.
